Reference: ChEMBL document CHEMBL1133986, “Design and synthesis of new potent human cytomegalovirus (HCMV) inhibitors based on internally hydrogen-bonded 1,6-naphthyridines” (Bioorg Med Chem Lett, 2001)
Values after ≈ are worked out from the molar mass of the structure shown.

How the values were obtained:
Hs68 [1] = assay: Cytotoxicity against the Hs 68 cell line; type: functional; details: Homo sapiens
Hs68 [2] = assay: Inhibitory activity against Human cytomegalovirus (HCMV) in Hs 68 cell line determined by plaque reduction assay; type: functional, cell-based

CC(C)Oc1ccccc1CNC(=O)Nc1ccc2cnccc2n1
CC50 (Hs68 [1]): 18.9 µg/mL (≈ 56.2 µM)
IC50 (Hs68 [2]): 0.01 µg/mL (≈ 0.0297 µM)

COc1ccccc1C/N=C(\S)c1ccc2cnccc2n1
CC50 (Hs68 [1]): 8.1 µg/mL (≈ 26.2 µM)
IC50 (Hs68 [2]): 0.93 µg/mL (≈ 3.01 µM)

CCOc1ccccc1C/N=C(\S)c1ccc2cnccc2n1
CC50 (Hs68 [1]): 4.6 µg/mL (≈ 14.2 µM)
IC50 (Hs68 [2]): 0.1 µg/mL (≈ 0.309 µM)

O=C(Nc1ccccc1)Nc1ccc2cnccc2n1
CC50 (Hs68 [1]): > 100 µg/mL
IC50 (Hs68 [2]): > 25 µg/mL

COc1ccccc1CNC(=O)Nc1ccc2cnccc2n1
CC50 (Hs68 [1]): 13 µg/mL (≈ 42.2 µM)
IC50 (Hs68 [2]): 1 µg/mL (≈ 3.24 µM)

CC(C)Oc1ccccc1NC(=O)Nc1ccc2cnccc2n1
CC50 (Hs68 [1]): 30.2 µg/mL (≈ 93.7 µM)
IC50 (Hs68 [2]): 0.03 µg/mL (≈ 0.0931 µM)

COc1ccccc1NC(=O)Nc1ccc2cnccc2n1
CC50 (Hs68 [1]): 33.9 µg/mL (≈ 115 µM)
IC50 (Hs68 [2]): 1.2 µg/mL (≈ 4.08 µM)

CCOc1ccccc1NC(=O)Nc1ccc2cncc(Br)c2n1
CC50 (Hs68 [1]): 9.3 µg/mL (≈ 24 µM)
IC50 (Hs68 [2]): 0.46 µg/mL (≈ 1.19 µM)

CCOc1ccccc1NC(=O)Nc1nc2ccncc2cc1C#N
CC50 (Hs68 [1]): < 25 µg/mL
IC50 (Hs68 [2]): > 25 µg/mL

O=C(NCc1ccccc1)Nc1ccc2cnccc2n1
CC50 (Hs68 [1]): 0.37 µg/mL (≈ 1.33 µM)
IC50 (Hs68 [2]): 0.29 µg/mL (≈ 1.04 µM)

CCOc1ccccc1NC(=O)Nc1ccc2cnccc2n1
CC50 (Hs68 [1]): 1.7 µg/mL (≈ 5.51 µM)
IC50 (Hs68 [2]): 0.14 µg/mL (≈ 0.454 µM)

CC(C)Oc1ccccc1C/N=C(\S)c1ccc2cnccc2n1
CC50 (Hs68 [1]): 11.1 µg/mL (≈ 32.9 µM)
IC50 (Hs68 [2]): 0.16 µg/mL (≈ 0.474 µM)

CCOc1ccccc1NC(=O)Nc1nc2ccncc2cc1C
CC50 (Hs68 [1]): > 100 µg/mL
IC50 (Hs68 [2]): > 25 µg/mL
